This note sets out measurements from US9227971B2, “Pyrazolo[1,5-a]pyrimidine compounds as mTOR inhibitors” (Merck Sharp & Dohme Corp., priority 2010, dated 2016).

Read-outs that look alike come from different tables or passages of the source.

The subject of assay [1] is phosphorylated AKT Ser473 (pAKT S473), mTORC2 activity, PC3 cells. The experiment in a line: mTOR target engagement assay, immunofluorescent cell-based, pAKT S473 readout (mTORC2 activity). In outline: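 After blocking, cells were stained overnight at 4 °C with anti-pAKT S473 antibody, then a fluorescent secondary; inhibition was read as reduced fluorescence intensity.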

The test system of assay [2] is phosphorylated 4E-BP1 Thr37/46 (p4E-BP1 Thr37/46), mTORC1 activity, PC3 cells. The experiment in a line: mTOR target engagement assay, immunofluorescent cell-based, p4E-BP1 Thr37/46 readout (mTORC1 activity). Conditions: read-out: p4E-BP1 Thr37/46 IC50. A digest of the protocol:
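Seed PC3 cells overnight; treat with compound dilutions for ninety minutes at 37° C; fix with glyoxal and block; stain with anti-p4E-BP1 Thr37/46 overnight at 4° C, then fluorescent secondary; read fluorescence and fit IC50 against DMSO-only controls.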

The mark [3] stands for this setting: Homo sapiens, PC-3, PC3 cells, compound treatment ninety minutes at 37° C.
Where [4] appears, read: Homo sapiens, PC-3, Table 3-1, PC3 cells.
[5] abbreviates: Homo sapiens, PC-3, Table 6-1, PC3 cells.

For the compound `CC(=O)c1c([C@@H]2C[C@H]3CC[C@@H](C2)N3C(=O)c2cnccc2O)nc2c(-c3ccc(-c4ccccc4)nc3)cnn2c1N` [Compound 1.1.51, 1-(7-amino-5-((1R,3s,5S)-8-(4-hydroxynicotinoyl)-8-azabicyclo[3.2.1]octan-3-yl)-3-(6-phenylpyridin-3-yl)pyrazolo[1,5-a]pyrimidin-6-yl)ethanone], the IC50 in assay [1] (setting [3]) and in assay [2] (setting [3]) was 100 to 1000 nM each time.
As for `Cn1cc(-c2cnn3c(N)c(S(C)(=O)=O)c([C@@H]4C[C@H]5CC[C@@H](C4)N5C(=O)c4nnc[nH]4)nc23)cn1` [Compound 3.111, ((1R,3s,5S)-3-(7-amino-3-(1-methyl-1H-pyrazol-4-yl)-6-(methylsulfonyl)pyrazolo[1,5-a]pyrimidin-5-yl)-8-azabicyclo[3.2.1]octan-8-yl)(4H-1,2,4-triazol-3-yl)methanone], the IC50 in assay [1] (setting [4]) and in assay [2] (setting [4]) was 1000 to 10000 nM each time.
`Cc1ccc(-c2cnn3c(N)c(S(C)(=O)=O)c([C@@H]4C[C@H]5CC[C@@H](C4)N5C(=O)c4nnc[nH]4)nc23)cn1` [Compound 3.68, ((1R,3s,5S)-3-(7-amino-3-(6-methylpyridin-3-yl)-6-(methylsulfonyl)pyrazolo[1,5-a]pyrimidin-5-yl)-8-azabicyclo[3.2.1]octan-8-yl)(4H-1,2,4-triazol-3-yl)methanone]: the IC50 in assay [1] (Table 3-1, PC3 cells) was 100 to 1000 nM; in assay [2] (Table 3-1, PC3 cells), 100 to 1000 nM.
Consider `CNC(=O)N1[C@@H]2CC[C@H]1C[C@H](c1nc3c(-c4ccc(-c5ccccc5)nc4)cnn3c(N)c1C(C)=O)C2` [Compound 1.1.39, (1R,3s,5S)-3-(6-acetyl-7-amino-3-(6-phenylpyridin-3-yl)pyrazolo[1,5-a]pyrimidin-5-yl)-N-methyl-8-azabicyclo[3.2.1]octane-8-carboxamide], for which the IC50 in assay [1] (setting [3]) and in assay [2] (setting [3]) was 1 to 100 nM each time.
Regarding `CC(=O)c1c(N2C3CCC2CN(C(=O)CO)C3)nc2c(-c3ccc(-c4ccccc4)nc3)cnn2c1N` [Compound 8.7, 1-(8-(6-acetyl-7-amino-3-(6-phenylpyridin-3-yl)pyrazolo[1,5-a]pyrimidin-5-yl)-3,8-diazabicyclo[3.2.1]octan-3-yl)-2-hydroxyethanone], the IC50 in assay [1] (Homo sapiens, PC-3, PC3 cells) was in the range of 100 to 1000 nM; in assay [2] (Homo sapiens, PC-3, PC3 cells), 1000 to 10000 nM.
`N#Cc1c([C@@H]2C[C@H]3CC[C@@H](C2)N3C(=O)c2nnc[nH]2)nc2c(-c3ccc(-c4nccs4)nc3)cnn2c1N` [Compound 5.3, 5-((1R,3s,5S)-8-(4H-1,2,4-triazole-3-carbonyl)-8-azabicyclo[3.2.1]octan-3-yl)-7-amino-3-(6-(thiazol-2-yl)pyridin-3-yl)pyrazolo[1,5-a]pyrimidine-6-carbonitrile]: the IC50 in assay [1] (setting [3]) and in assay [2] (setting [3]) was 1 to 100 nM in each case.
As to `CS(=O)(=O)c1c([C@@H]2C[C@H]3CC[C@@H](C2)N3C(=O)c2nnc[nH]2)nc2c(-c3cnc(-c4ccccc4)nc3)cnn2c1N` [Compound 3.136, ((1R,3s,5S)-3-(7-amino-6-(methylsulfonyl)-3-(2-phenylpyrimidin-5-yl)pyrazolo[1,5-a]pyrimidin-5-yl)-8-azabicyclo[3.2.1]octan-8-yl)(4H-1,2,4-triazol-3-yl)methanone], the IC50 in assay [1] (setting [4]) and in assay [2] (setting [4]) was 1 to 100 nM throughout.
As for `CC(=O)c1c([C@@H]2C[C@H]3CC[C@@H](C2)N3C(=O)c2nnc[nH]2)nc2c(-c3ccc(-c4ncc(C)[nH]4)c(F)c3)cnn2c1N` [Compound 6.39, 1-(5-((1R,3s,5S)-8-(4H-1,2,4-triazole-3-carbonyl)-8-azabicyclo[3.2.1]octan-3-yl)-7-amino-3-(3-fluoro-4-(5-methyl-1H-imidazol-2-yl)phenyl)pyrazolo[1,5-a]pyrimidin-6-yl)ethanone], the IC50 in assay [1] (setting [5]) fell in the range of 1 to 100 nM; in assay [2] (setting [5]), 100 to 1000 nM.
On to `CC(=O)c1c([C@@H]2C[C@H]3CC[C@@H](C2)N3C(=O)c2nnc[nH]2)nc2c(-c3ccc(-c4ccc5nn(C)cc5c4)nc3)cnn2c1N` [Compound 1.1.70, 1-(5-((1R,3s,5S)-8-(4H-1,2,4-triazole-3-carbonyl)-8-azabicyclo[3.2.1]octan-3-yl)-7-amino-3-(6-(2-methyl-2H-indazol-5-yl)pyridin-3-yl)pyrazolo[1,5-a]pyrimidin-6-yl)ethanone], for which the IC50 in assay [1] (setting [3]) and in assay [2] (setting [3]) was 1 to 100 nM in each case.
As for `COCCOc1nnc(C(=O)N2C3CCC2CC(c2nc4c(-c5ccc(-c6ccccc6)nc5)cnn4c(N)c2C2CC2)C3)[nH]1` [Compound 8.100, ((1R,3s,5S)-3-(7-amino-6-cyclopropyl-3-(6-phenylpyridin-3-yl)pyrazolo[1,5-a]pyrimidin-5-yl)-8-azabicyclo[3.2.1]octan-8-yl)(5-(2-methoxyethoxy)-4H-1,2,4-triazol-3-yl)methanone], the IC50 fell in the range of 100 to 1000 nM in assay [1] (Homo sapiens, PC-3, PC3 cells) and 100 to 1000 nM in assay [2] (Homo sapiens, PC-3, PC3 cells).
With `Nc1c(C2CC2)c([C@@H]2C[C@H]3CC[C@@H](C2)N3C(=O)c2nnc[nH]2)nc2c(-c3ccc(-c4ccccc4)nc3)cnn12` [Compound 4.1, ((1R,3a,5S)-3-(7-amino-6-cyclopropyl-3-(6-phenylpyridin-3-yl)pyrazolo[1,5-a]pyrimidin-5-yl)-8-azabicyclo[3.2.1]octan-8-yl)(4H-1,2,4-triazol-3-yl)methanone], the IC50 in assay [1] (setting [3]) and in assay [2] (setting [3]) was 1 to 100 nM each time.
With `Cc1cnc(-c2ccc(-c3cnn4c(N)c(S(C)(=O)=O)c([C@@H]5C[C@H]6CC[C@@H](C5)N6C(=O)C(O)C(F)(F)F)nc34)cn2)s1` (stereo partly drawn) [Compound 3.187, 1-((1R,3s,5S)-3-(7-amino-6-(methylsulfonyl)-3-(6-(5-methylthiazol-2-yl)pyridin-3-yl)pyrazolo[1,5-a]pyrimidin-5-yl)-8-azabicyclo[3.2.1]octan-8-yl)-3,3,3-trifluoro-2-hydroxypropan-1-one], the IC50 in assay [1] (setting [4]) and in assay [2] (setting [4]) was 1000 to 10000 nM throughout.
For the compound `COc1ccc(-c2ccc(-c3cnn4c(N)cc([C@@H]5C[C@H]6CC[C@@H](C5)N6C(=O)c5nnc[nH]5)nc34)cn2)cc1CO` [Compound 2.6, ((1R,3s,5S)-3-(7-amino-3-(6-(3-(hydroxymethyl)-4-methoxyphenyl)pyridin-3-yl)pyrazolo[1,5-a]pyrimidin-5-yl)-8-azabicyclo[3.2.1]octan-8-yl)(4H-1,2,4-triazol-3-yl)methanone], the IC50 in assay [1] (setting [3]) and in assay [2] (setting [3]) was 100 to 1000 nM throughout.
Turning to `CS(=O)(=O)c1c([C@@H]2C[C@H]3CC[C@@H](C2)N3C(=O)c2nnc[nH]2)nc2c(-c3ccc(-c4ccc5c(c4)OC(F)(F)O5)nc3)cnn2c1N` [Compound 3.53, ((1R,3s,5S)-3-(7-amino-3-(6-(2,2-difluorobenzo[d][1,3]dioxol-5-yl)pyridin-3-yl)-6-(methylsulfonyl)pyrazolo[1,5-a]pyrimidin-5-yl)-8-azabicyclo[3.2.1]octan-8-yl)(4H-1,2,4-triazol-3-yl)methanone], the figures for the IC50 in assay [1] (setting [4]) and in assay [2] (setting [4]) were 100 to 1000 nM and 1000 to 10000 nM, respectively.
Regarding `CC(=O)c1c([C@@H]2C[C@H]3CC[C@@H](C2)N3C(=O)c2nnc[nH]2)nc2c(-c3ccc(-n4ccc(C)n4)nc3)cnn2c1N` [Compound 1.1.136, 1-(5-((1R,3s,5S)-8-(4H-1,2,4-triazole-3-carbonyl)-8-azabicyclo[3.2.1]octan-3-yl)-7-amino-3-(6-(3-methyl-1H-pyrazol-1-yl)pyridin-3-yl)pyrazolo[1,5-a]pyrimidin-6-yl)ethanone], the IC50 in assay [1] (setting [3]) lay within 1 to 100 nM; in assay [2] (setting [3]), 100 to 1000 nM.
